This note sets out measurements from patent publication US11608335B2, “Somatostatin modulators and uses thereof” (CRINETICS PHARMACEUTICALS, INC., priority 2018, dated 2023).

Experiment [1] addresses human somatostatin receptor subtype 5 (Homo sapiens, UniProt P35346). Nature of the experiment: cAMP assay for SST5R (inhibition of cAMP via human SST5 receptor). To be noted: for Fold selectivity for SST5 vs SST2: SST5 over SST2, class symbols. (In general: cAMP levels reflect the balance of adenylyl cyclase and phosphodiesterase activity.)
The target of experiment [2] is T1, human somatostatin receptor subtype 2 (Homo sapiens, UniProt P30874).
T1 construct: expressed in transfected cells
T1 sequence (P30874 whole entry): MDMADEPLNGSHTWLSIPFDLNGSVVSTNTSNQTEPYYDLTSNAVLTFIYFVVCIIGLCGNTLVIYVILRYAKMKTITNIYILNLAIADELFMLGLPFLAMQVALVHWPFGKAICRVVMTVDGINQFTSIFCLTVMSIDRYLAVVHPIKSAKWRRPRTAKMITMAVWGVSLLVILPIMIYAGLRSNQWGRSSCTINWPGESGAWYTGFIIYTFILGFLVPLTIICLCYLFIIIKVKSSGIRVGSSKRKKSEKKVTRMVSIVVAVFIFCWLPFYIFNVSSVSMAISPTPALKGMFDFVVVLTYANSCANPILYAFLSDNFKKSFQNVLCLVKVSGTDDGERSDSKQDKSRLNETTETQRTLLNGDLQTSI
Kind of experiment: cAMP assay for SST2R (inhibition of cAMP via human SST2 receptor). It is filed as cell-based. The settings on record: Table B, read-out: SST2 potency. From the text: cAMP Assay Protocol for SST2R:

Where [3] appears, read: read-out: SST5 potency, inhibition of cAMP via human SST5 receptor, Table B.

Where two headings read alike, the source gives them in different places.

human somatostatin receptor subtype 5, sequence (P35346 whole entry): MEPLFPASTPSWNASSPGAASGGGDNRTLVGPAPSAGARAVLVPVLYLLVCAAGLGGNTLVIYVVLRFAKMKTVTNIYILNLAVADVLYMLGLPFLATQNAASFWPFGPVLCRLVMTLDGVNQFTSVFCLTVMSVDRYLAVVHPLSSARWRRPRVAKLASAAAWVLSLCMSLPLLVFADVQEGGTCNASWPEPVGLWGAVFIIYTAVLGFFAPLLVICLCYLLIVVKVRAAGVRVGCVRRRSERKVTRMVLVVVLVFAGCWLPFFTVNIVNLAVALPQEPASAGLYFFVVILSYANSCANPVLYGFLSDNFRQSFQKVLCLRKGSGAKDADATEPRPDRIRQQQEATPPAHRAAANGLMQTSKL

Take `N#Cc1cccc(-c2cncc(-c3nc4c(F)cccc4[nH]3)c2N2CCC(N)(CO)C2)c1` (stereo not drawn) [Compound 2-54, 3-{4-[3-amino-3-(hydroxymethyl)pyrrolidin-1-yl]-5-(4-fluoro-1H-1,3-benzodiazol-2-yl)pyridin-3-yl}benzonitrile]: the EC50 was below 10 nM in experiment [1], below 10 nM in experiment [1] (setting [3]) and 100 to 1000 nM in experiment [2]. For the same compound, the “Fold selectivity for SST5 vs SST2” value in experiment [1] is “+++ (+++=≥500)”.
Consider `N#Cc1cccc(-c2cncc(-c3nc4cccc(Br)c4[nH]3)c2N2CC[C@H](N)C2)c1` [Compound 2-57, 3-{4-[(3S)-3-aminopyrrolidin-1-yl]-5-(4-bromo-1H-1,3-benzodiazol-2-yl)pyridin-3-yl}benzonitrile], for which the EC50 is below 10 nM in experiment [1], below 10 nM in experiment [1] (setting [3]) and 100 to 1000 nM in experiment [2]. Also, in experiment [1], the “Fold selectivity for SST5 vs SST2” value is “+++ (+++=≥500)”.
Regarding `N#Cc1cc(-c2cncc(-c3nc4cccc(C(F)(F)F)c4[nH]3)c2N2CC[C@H](N)C2)ccc1F` [Compound 2-60, 5-{4-[(3S)-3-aminopyrrolidin-1-yl]-5-[4-(trifluoromethyl)-1H-1,3-benzodiazol-2-yl]pyridin-3-yl}-2-fluorobenzonitrile], the EC50 was below 10 nM in experiment [1], below 10 nM in experiment [1] (setting [3]) and 100 to 1000 nM in experiment [2]. Also, the “Fold selectivity for SST5 vs SST2” value in experiment [1] is on record as “++ (++=100 to 499)”.
As to `Cc1cccc2nc(-c3cncc(-c4cc(F)cc(C(N)=O)c4)c3N3CC[C@H](N)C3)[nH]c12` [Compound 2-65, 3-{4-[(3S)-3-aminopyrrolidin-1-yl]-5-(4-methyl-1H-1,3-benzodiazol-2-yl)pyridin-3-yl}-5-fluorobenzamide], the figures for the EC50 in experiment [1], in experiment [1] (setting [3]) and in experiment [2] were below 10 nM, below 10 nM and 100 to 1000 nM, respectively. In experiment [1], the “Fold selectivity for SST5 vs SST2” value is recorded as “++ (++=100 to 499)”.
With `Cn1c(-c2cncc(-c3cccc(C#N)c3)c2N2CC[C@H](N)C2)nc2cccc(Cl)c21` [Compound 2-76, 3-{4-[(3S)-3-aminopyrrolidin-1-yl]-5-(7-chloro-1-methyl-1H-1,3-benzodiazol-2-yl)pyridin-3-yl}benzonitrile], the EC50 in experiment [1] was below 10 nM; in experiment [1] (setting [3]), below 10 nM; in experiment [2] it was 100 to 1000 nM. Moreover, the “Fold selectivity for SST5 vs SST2” value in experiment [1] is “+++ (+++=≥500)”.
With `Cc1cc(F)cc2nc(-c3cncc(-c4cc(F)cc(C#N)c4)c3N3CC[C@H](N)C3)[nH]c12` [Compound 2-79, 3-{4-[(3S)-3-aminopyrrolidin-1-yl]-5-(6-fluoro-4-methyl-1H-1,3-benzodiazol-2-yl)pyridin-3-yl}-5-fluorobenzonitrile], the EC50 in experiment [1] was below 10 nM; in experiment [1] (setting [3]), below 10 nM; in experiment [2], 100 to 1000 nM. The “Fold selectivity for SST5 vs SST2” value in experiment [1] is “++ (++=100 to 499)”.
`Cc1cccc2nc(-c3cncc(-c4cccc(C#N)c4)c3N3CC[C@H](N)C3)[nH]c12` [Compound 2-80, 3-{4-[(3S)-3-aminopyrrolidin-1-yl]-5-(4-methyl-1H-1,3-benzodiazol-2-yl)pyridin-3-yl}benzonitrile]: the EC50 is below 10 nM in experiment [1], below 10 nM in experiment [1] (setting [3]) and 100 to 1000 nM in experiment [2]. The “Fold selectivity for SST5 vs SST2” value in experiment [1] is on record as “+++ (+++=≥500)”.
`Cc1c(F)ccc2nc(-c3cncc(-c4cc(F)cc(C#N)c4)c3N3CC[C@H](N)C3)[nH]c12` [Compound 2-86, 3-{4-[(3S)-3-aminopyrrolidin-1-yl]-5-(5-fluoro-4-methyl-1H-1,3-benzodiazol-2-yl)pyridin-3-yl}-5-fluorobenzonitrile]: the EC50 is below 10 nM in experiment [1], below 10 nM in experiment [1] (setting [3]) and 100 to 1000 nM in experiment [2]. Besides, the “Fold selectivity for SST5 vs SST2” value in experiment [1] is “++ (++=100 to 499)”.
Take `Cc1ccc(F)c2[nH]c(-c3cncc(-c4ccnc(C#N)c4)c3N3CC[C@H](N)C3)nc12` [Compound 2-106, 4-[(3S)-3-aminopyrrolidin-1-yl]-5-(7-fluoro-4-methyl-1H-1,3-benzodiazol-2-yl)-[3,4′-bipyridine]-2′-carbonitrile]: the results for the EC50 in experiment [1], in experiment [1] (setting [3]) and in experiment [2] were below 10 nM, below 10 nM and 100 to 1000 nM, respectively. In addition, in experiment [1], the “Fold selectivity for SST5 vs SST2” value is “+++ (+++=≥500)”.
For `Cc1ccnc2nc(-c3cncc(-c4cc(F)cc(C#N)c4)c3N3CCC(C)(N)C3)[nH]c12` (stereo not drawn) [Compound 2-108, 3-[4-(3-amino-3-methylpyrrolidin-1-yl)-5-{7-methyl-1H-imidazo[4,5-b]pyridin-2-yl}pyridin-3-yl]-5-fluorobenzonitrile], the figures for the EC50 in experiment [1], in experiment [1] (setting [3]) and in experiment [2] were below 10 nM, below 10 nM and 100 to 1000 nM, respectively. For the same compound, the “Fold selectivity for SST5 vs SST2” value in experiment [1] is recorded as “++ (++=100 to 499)”.
Consider `N#Cc1cc(F)cc(-c2cncc(-c3nc4ccccc4[nH]3)c2N2CC[C@H](N)C2)c1` [Compound 2-109, 3-{4-[(3S)-3-aminopyrrolidin-1-yl]-5-(1H-1,3-benzodiazol-2-yl)pyridin-3-yl}-5-fluorobenzonitrile], for which the figures for the EC50 in experiment [1], in experiment [1] (setting [3]) and in experiment [2] were below 10 nM, below 10 nM and 100 to 1000 nM, respectively. Besides, the “Fold selectivity for SST5 vs SST2” value in experiment [1] was “++ (++=100 to 499)”.
Take `Cn1c(-c2cncc(-c3cc(F)cc(C#N)c3)c2N2CC[C@H](N)C2)nc2c(Cl)cccc21` [Compound 2-116, 3-{4-[(3S)-3-aminopyrrolidin-1-yl]-5-(4-chloro-1-methyl-1H-1,3-benzodiazol-2-yl)pyridin-3-yl}-5-fluorobenzonitrile]: the EC50 is below 10 nM in experiment [1], below 10 nM in experiment [1] (setting [3]) and above 1000 nM in experiment [2]. For the same compound, in experiment [1], the “Fold selectivity for SST5 vs SST2” value is on record as “+++ (+++=≥500)”.
`CC1(N)CCN(c2c(-c3ccnc(C#N)c3)cncc2-c2nc3cccc(F)c3[nH]2)C1` (stereo not drawn) [Compound 2-121, 4-(3-amino-3-methylpyrrolidin-1-yl)-5-(4-fluoro-1H-1,3-benzodiazol-2-yl)-[3,4′-bipyridine]-2′-carbonitrile]: the EC50 is below 10 nM in experiment [1], below 10 nM in experiment [1] (setting [3]) and 100 to 1000 nM in experiment [2]. For the same compound, the “Fold selectivity for SST5 vs SST2” value in experiment [1] is reported as “+++ (+++=≥500)”.
On to `Cc1ccnc2nc(-c3cncc(-c4cccc(C#N)c4)c3N3CCC(C)(N)C3)[nH]c12` (stereo not drawn) [Compound 2-122, 3-[4-(3-amino-3-methylpyrrolidin-1-yl)-5-{7-methyl-1H-imidazo[4,5-b]pyridin-2-yl}pyridin-3-yl]benzonitrile], for which the results for the EC50 in experiment [1], in experiment [1] (setting [3]) and in experiment [2] were below 10 nM, below 10 nM and 100 to 1000 nM, respectively. The “Fold selectivity for SST5 vs SST2” value in experiment [1] is “++ (++=100 to 499)”.
Take `Cc1cccc2nc(-c3cncc(-c4ccnc(C#N)c4)c3N3CCC(C)(N)C3)[nH]c12` (stereo not drawn) [Compound 2-123, 4-(3-amino-3-methylpyrrolidin-1-yl)-5-(4-methyl-1H-1,3-benzodiazol-2-yl)-[3,4′-bipyridine]-2′-carbonitrile]: the EC50 in experiment [1] was below 10 nM; in experiment [1] (setting [3]), below 10 nM; in experiment [2], 10 to 100 nM. Also, the “Fold selectivity for SST5 vs SST2” value in experiment [1] was “+++ (+++=≥500)”.
`Cc1cccc2nc(-c3cncc(-c4ccc(F)c(C(N)=O)c4)c3N3CCC(C)(N)C3)[nH]c12` (stereo not drawn) [Compound 2-124, 5-[4-(3-amino-3-methylpyrrolidin-1-yl)-5-(4-methyl-1H-1,3-benzodiazol-2-yl)pyridin-3-yl]-2-fluorobenzamide]: the EC50 is below 10 nM in experiment [1], below 10 nM in experiment [1] (setting [3]) and 100 to 1000 nM in experiment [2]. For the same compound, in experiment [1], the “Fold selectivity for SST5 vs SST2” value is “+++ (+++=≥500)”.
For the compound `Cc1ccc(F)c2nc(-c3cncc(-c4ccc(F)c(C(N)=O)c4)c3N3CCC(C)(N)C3)[nH]c12` (stereo not drawn) [Compound 2-125, 5-[4-(3-amino-3-methylpyrrolidin-1-yl)-5-(7-fluoro-4-methyl-1H-1,3-benzodiazol-2-yl)pyridin-3-yl]-2-fluorobenzamide], the EC50 in experiment [1] is below 10 nM; in experiment [1] (setting [3]), below 10 nM; in experiment [2], 100 to 1000 nM. Also, the “Fold selectivity for SST5 vs SST2” value in experiment [1] is reported as “+++ (+++=≥500)”.
Turning to `Cc1cccc2[nH]c(-c3cncc(-c4cc(F)c(F)c(C(N)=O)c4)c3N3CCC(C)(N)C3)nc12` (stereo not drawn) [Compound 2-127, 5-[4-(3-Amino-3-methylpyrrolidin-1-yl)-5-(4-methyl-1H-1,3-benzodiazol-2-yl)pyridin-3-yl]-2,3-difluorobenzamide], the EC50 was below 10 nM in experiment [1], below 10 nM in experiment [1] (setting [3]) and 100 to 1000 nM in experiment [2]. In experiment [1], the “Fold selectivity for SST5 vs SST2” value is “++ (++=100 to 499)”.
For `Cc1cccc2nc(-c3cncc(-c4ccnc(C#N)c4)c3N3CC[C@H](N)C3)[nH]c12` [Compound 2-128, 4-[(3S)-3-aminopyrrolidin-1-yl]-5-(4-methyl-1H-1,3-benzodiazol-2-yl)-[3,4′-bipyridine]-2′-carbonitrile], the values for the EC50 in experiment [1], in experiment [1] (setting [3]) and in experiment [2] were below 10 nM, below 10 nM and 100 to 1000 nM, respectively. For the same compound, the “Fold selectivity for SST5 vs SST2” value in experiment [1] is recorded as “+++ (+++=≥500)”.
Consider `Cn1c(-c2cncc(-c3ccc(F)c(C#N)c3)c2N2CC[C@H](N)C2)nc2c(Cl)cccc21` [Compound 2-131, 5-{4-[(3S)-3-aminopyrrolidin-1-yl]-5-(4-chloro-1-methyl-1H-1,3-benzodiazol-2-yl)pyridin-3-yl}-2-fluorobenzonitrile], for which the EC50 is 10 to 100 nM in experiment [1], 10 to 100 nM in experiment [1] (setting [3]) and above 1000 nM in experiment [2]. Besides, in experiment [1], the “Fold selectivity for SST5 vs SST2” value is given as “+++ (+++=≥500)”.
On to `Cc1cccc2c1nc(-c1cncc(-c3ccc(F)c(C#N)c3)c1N1CC[C@H](N)C1)n2C` [Compound 2-132, 5-{4-[(3S)-3-aminopyrrolidin-1-yl]-5-(1,4-dimethyl-1H-1,3-benzodiazol-2-yl)pyridin-3-yl}-2-fluorobenzonitrile], for which the values for the EC50 in experiment [1], in experiment [1] (setting [3]) and in experiment [2] were below 10 nM, below 10 nM and above 1000 nM, respectively. For the same compound, the “Fold selectivity for SST5 vs SST2” value in experiment [1] is given as “+++ (+++=≥500)”.
